{
  "source": "ChEMBL document CHEMBL5321200",
  "about": "“Discovery of the GSH responsive \"Y-PROTACs\" targeting ALK and CDK4/6 as a potential treatment for cancer” (Eur J Med Chem, 2023)",
  "key": {"NCI-H1299": {"tested_on": "NCI-H1299", "assay": "Antiproliferative activity against human NCI-H1299 cells assessed as inhibition of cell growth incubated for 3 to 5 days by MTT assay", "format": "functional, cell-based"}, "NCI-H3122 [1]": {"tested_on": "NCI-H3122", "assay": "Cell cycle arrest in human NCI-H3122 cells assessed as accumulation of cells at S phase at 0.625 uM incubated for 24 hrs by propidium iodide staining based flow cytometric analysis (reference value: 29.94%)", "format": "functional"}, "[2]": {"assay": "Toxicity in BALB/c nude mouse xenografted with human NCI-H3122 cells assessed as effect on spleen function at 75 mg/kg, IG administered once daily for 18 days by H and E staining based assay", "format": "organism-based", "conditions": "in vivo, po, 432 h, time 18 day"}, "[3]": {"biological_target": "Protein cereblon/ALK tyrosine kinase receptor (Homo sapiens) (UniProt Q9UM73+Q96SW2)", "sequence (Q96SW2 whole entry partner)": "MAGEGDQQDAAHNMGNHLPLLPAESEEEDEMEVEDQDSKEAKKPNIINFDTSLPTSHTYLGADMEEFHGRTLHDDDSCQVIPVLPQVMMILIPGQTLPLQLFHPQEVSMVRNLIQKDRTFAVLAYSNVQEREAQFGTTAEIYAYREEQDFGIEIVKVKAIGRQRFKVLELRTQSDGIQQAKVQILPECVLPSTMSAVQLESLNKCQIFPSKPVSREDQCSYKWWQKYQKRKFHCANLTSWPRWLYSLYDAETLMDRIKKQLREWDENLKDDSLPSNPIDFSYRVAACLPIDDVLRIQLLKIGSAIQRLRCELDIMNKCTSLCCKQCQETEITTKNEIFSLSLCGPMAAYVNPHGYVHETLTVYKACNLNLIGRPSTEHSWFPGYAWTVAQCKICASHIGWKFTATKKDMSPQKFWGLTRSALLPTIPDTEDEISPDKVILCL", "sequence (Q9UM73 19-1620 limits assumed)": "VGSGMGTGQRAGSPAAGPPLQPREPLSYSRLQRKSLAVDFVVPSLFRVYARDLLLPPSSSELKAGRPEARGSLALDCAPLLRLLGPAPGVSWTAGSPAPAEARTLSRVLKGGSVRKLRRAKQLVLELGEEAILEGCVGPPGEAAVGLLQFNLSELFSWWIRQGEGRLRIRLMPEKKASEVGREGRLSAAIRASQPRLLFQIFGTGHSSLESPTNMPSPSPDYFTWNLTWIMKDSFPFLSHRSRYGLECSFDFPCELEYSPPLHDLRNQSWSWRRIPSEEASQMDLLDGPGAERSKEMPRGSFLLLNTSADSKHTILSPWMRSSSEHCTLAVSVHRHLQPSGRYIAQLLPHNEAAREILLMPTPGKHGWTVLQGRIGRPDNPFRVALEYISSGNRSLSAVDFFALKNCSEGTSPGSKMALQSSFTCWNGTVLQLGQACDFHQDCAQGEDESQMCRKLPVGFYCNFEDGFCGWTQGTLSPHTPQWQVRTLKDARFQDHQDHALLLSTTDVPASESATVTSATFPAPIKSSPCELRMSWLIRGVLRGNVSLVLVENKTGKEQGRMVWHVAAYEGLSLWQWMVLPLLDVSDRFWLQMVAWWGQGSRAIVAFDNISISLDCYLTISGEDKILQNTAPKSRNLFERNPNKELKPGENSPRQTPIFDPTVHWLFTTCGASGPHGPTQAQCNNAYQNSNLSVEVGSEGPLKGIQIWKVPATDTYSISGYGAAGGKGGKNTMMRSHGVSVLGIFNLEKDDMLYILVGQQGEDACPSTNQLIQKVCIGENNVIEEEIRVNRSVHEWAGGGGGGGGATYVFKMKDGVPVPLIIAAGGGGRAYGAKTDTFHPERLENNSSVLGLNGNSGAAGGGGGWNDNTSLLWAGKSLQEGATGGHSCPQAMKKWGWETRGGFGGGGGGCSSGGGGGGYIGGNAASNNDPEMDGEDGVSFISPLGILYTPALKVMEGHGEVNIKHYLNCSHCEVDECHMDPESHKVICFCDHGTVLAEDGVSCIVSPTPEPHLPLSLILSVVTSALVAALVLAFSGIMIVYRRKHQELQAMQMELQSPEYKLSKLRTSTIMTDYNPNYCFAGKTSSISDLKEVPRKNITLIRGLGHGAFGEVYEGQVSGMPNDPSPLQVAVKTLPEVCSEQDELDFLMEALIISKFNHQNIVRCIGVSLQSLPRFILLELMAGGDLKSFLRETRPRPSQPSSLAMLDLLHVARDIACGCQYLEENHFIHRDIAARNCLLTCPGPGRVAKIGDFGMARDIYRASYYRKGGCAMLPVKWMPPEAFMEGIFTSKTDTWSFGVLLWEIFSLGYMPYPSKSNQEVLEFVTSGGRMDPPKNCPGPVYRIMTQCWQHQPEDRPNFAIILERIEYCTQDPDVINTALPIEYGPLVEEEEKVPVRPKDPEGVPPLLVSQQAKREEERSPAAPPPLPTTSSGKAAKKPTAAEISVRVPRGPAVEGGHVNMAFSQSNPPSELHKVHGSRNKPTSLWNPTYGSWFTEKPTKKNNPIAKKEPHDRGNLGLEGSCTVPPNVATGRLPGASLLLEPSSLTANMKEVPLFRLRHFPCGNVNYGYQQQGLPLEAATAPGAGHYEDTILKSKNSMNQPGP", "assay": "PROTAC activity at CRBN/ALK in human NCI-H3122 cells assessed as degradation of ALK protein at 5 uM pretreated with ceritinib for 4 hrs followed by compound addition and measured after 24 hrs by Western blot analysis", "format": "cell-based"}, "NCI-H2228 [4]": {"tested_on": "NCI-H2228", "assay": "Antiproliferative activity against human NCI-H2228 cells assessed as inhibition of cell growth incubated for 3 to 5 days by MTT assay", "format": "functional, cell-based"}, "[5]": {"biological_target": "T1, Protein cereblon/Cyclin-dependent kinase 4 (Homo sapiens, UniProt P11802+Q96SW2)", "T1 sequence (P11802 2-303 limits assumed)": "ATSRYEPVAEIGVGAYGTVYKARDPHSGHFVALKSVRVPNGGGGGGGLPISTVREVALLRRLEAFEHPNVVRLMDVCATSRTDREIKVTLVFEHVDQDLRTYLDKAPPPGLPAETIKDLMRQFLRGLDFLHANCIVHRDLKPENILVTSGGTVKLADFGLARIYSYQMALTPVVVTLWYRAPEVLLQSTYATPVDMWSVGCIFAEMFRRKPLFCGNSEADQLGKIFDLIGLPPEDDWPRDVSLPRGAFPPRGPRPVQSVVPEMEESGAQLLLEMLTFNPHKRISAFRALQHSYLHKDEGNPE", "T1 sequence (Q96SW2 whole entry partner)": "as the sequence (Q96SW2 whole entry partner) above", "assay": "PROTAC activity at CRBN/CDK4 in human L02 cells assessed as reduction in CDK4 protein level at 1 to 20 uM incubated for 24 hrs by Western blot analysis", "format": "cell-based", "conditions": "dose 1-20 µM"}, "NCI-H3122 [6]": {"tested_on": "NCI-H3122", "assay": "Induction of apoptosis in human NCI-H3122 cells assessed as late apoptotic cells at 1.25 uM incubated for 48 hrs by Annexin V-FITC/propidium iodide staining based flow cytometric analysis (reference value: 3.06%)", "format": "functional"}, "[7]": {"biological_target": "T1, Protein cereblon/Cyclin-dependent kinase 4", "assay": "PROTAC activity at CRBN/CDK4 in human NCI-H3122 cells assessed as induction of CDK4 degradation at 5 uM pretreated with MG132 for 4 hrs followed compound addition and measured after 24 hrs by Western blot analysis", "format": "cell-based"}, "[8]": {"biological_target": "T2, Protein cereblon/ALK tyrosine kinase receptor/Echinoderm microtubule-associated protein-like 4 (Homo sapiens) (UniProt Q9UM73+Q9HC35+Q96SW2)", "T2 sequence (Q96SW2 whole entry partner, the tested form may be a part)": "as the sequence (Q96SW2 whole entry partner) above", "T2 sequence (Q9HC35 whole entry partner, the tested form may be a part)": "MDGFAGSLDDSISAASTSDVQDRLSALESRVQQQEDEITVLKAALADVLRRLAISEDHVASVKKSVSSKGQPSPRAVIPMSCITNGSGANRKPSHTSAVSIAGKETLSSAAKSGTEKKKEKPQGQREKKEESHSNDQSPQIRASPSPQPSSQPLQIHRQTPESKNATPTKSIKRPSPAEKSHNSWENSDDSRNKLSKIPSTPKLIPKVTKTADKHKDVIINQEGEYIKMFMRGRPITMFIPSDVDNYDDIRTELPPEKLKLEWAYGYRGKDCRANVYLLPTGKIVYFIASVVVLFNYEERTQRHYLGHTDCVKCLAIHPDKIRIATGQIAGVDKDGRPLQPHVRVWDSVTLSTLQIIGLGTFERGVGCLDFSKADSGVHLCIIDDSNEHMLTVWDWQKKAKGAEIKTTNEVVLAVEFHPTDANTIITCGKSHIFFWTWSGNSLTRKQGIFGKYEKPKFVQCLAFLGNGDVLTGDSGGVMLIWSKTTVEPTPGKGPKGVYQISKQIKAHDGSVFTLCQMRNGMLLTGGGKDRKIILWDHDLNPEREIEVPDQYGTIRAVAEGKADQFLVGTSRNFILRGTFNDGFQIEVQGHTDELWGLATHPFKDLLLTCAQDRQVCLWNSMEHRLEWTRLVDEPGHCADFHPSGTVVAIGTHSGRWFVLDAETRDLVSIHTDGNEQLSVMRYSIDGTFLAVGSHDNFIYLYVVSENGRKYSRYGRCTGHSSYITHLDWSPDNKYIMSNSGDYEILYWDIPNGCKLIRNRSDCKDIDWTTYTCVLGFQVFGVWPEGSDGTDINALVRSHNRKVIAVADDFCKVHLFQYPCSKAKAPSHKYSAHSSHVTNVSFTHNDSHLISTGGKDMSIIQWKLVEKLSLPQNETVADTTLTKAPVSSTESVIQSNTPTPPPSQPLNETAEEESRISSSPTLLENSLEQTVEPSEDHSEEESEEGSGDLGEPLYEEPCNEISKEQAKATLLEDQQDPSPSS", "T2 sequence (Q9UM73 19-1620 limits assumed)": "as the sequence (Q9UM73 19-1620 limits assumed) above", "assay": "PROTAC activity at CRBN/EML4-ALK in human NCI-H3122 cells assessed as degradation of EML4-ALK fusion protein at 5 uM pretreated with pomalidomide for 4 hrs followed by compound addition and measured after 24 hrs by Western blot analysis", "format": "cell-based"}, "NCI-H3122 [9]": {"tested_on": "NCI-H3122", "assay": "Cell cycle arrest in human NCI-H3122 cells assessed as G2/M phase cells at 0.625 uM incubated for 24 hrs by propidium iodide staining based flow cytometric analysis (reference value: 20.89%)", "format": "functional"}, "NCI-H3122 [10]": {"tested_on": "NCI-H3122", "assay": "Cell cycle arrest in human NCI-H3122 cells assessed as G2/M phase cells at 1.25 uM incubated for 24 hrs by propidium iodide staining based flow cytometric analysis (reference value: 20.89%)", "format": "functional"}, "[11]": {"biological_target": "ALK tyrosine kinase receptor (Homo sapiens) (UniProt Q9UM73)", "sequence (Q9UM73 19-1620 limits assumed)": "as above", "assay": "Inhibition of ALK (unknown origin) at 0.05 uM by LANCE Ultra TR-FRET assay relative to control"}, "[12]": {"biological_target": "Cyclin-dependent kinase 4 (Homo sapiens) (UniProt P11802)", "sequence (P11802 whole entry)": "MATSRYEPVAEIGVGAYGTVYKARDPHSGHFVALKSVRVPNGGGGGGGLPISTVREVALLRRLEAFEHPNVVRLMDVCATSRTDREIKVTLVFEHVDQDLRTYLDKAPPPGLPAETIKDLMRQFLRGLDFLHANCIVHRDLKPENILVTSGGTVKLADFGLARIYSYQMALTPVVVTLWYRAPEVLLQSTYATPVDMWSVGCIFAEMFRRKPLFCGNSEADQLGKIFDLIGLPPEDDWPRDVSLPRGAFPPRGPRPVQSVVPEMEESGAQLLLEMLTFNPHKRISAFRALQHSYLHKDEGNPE", "assay": "Inhibition of CDK4 (unknown origin) at 1 uM by LANCE Ultra TR-FRET assay relative to control"}, "[13]": {"biological_target": "T2, Protein cereblon/ALK tyrosine kinase receptor/Echinoderm microtubule-associated protein-like 4 (Homo sapiens)", "assay": "PROTAC activity at CRBN/EML4-ALK in human NCI-H3122 cells assessed as reduction in EML4-ALK fusion protein level at 10 uM incubated for 24 hrs by Western blot analysis", "format": "cell-based"}, "NCI-H2228 [14]": {"tested_on": "NCI-H2228", "assay": "Antiproliferative activity against human NCI-H2228 cells assessed as inhibition of cell growth pretreated with GSH followed by compound addition and incubated for 3 to 5 days by MTT assay", "format": "functional, cell-based"}, "[15]": {"assay": "Toxicity in BALB/c nude mouse xenografted with human NCI-H3122 cells assessed as effect on liver function at 75 mg/kg, IG administered once daily for 18 days by H and E staining based assay", "format": "organism-based", "conditions": "in vivo, po, 432 h, time 18 day"}, "Mus musculus": {"tested_on": "Mus musculus", "assay": "In vivo PROTAC activity at CRBN/EML4-ALK in BALB/c nude mouse xenografted with human NCI-H3122 cells assessed as reduction in EML4-ALK protein expression in tumor at 75 mg/kg, IG administered once daily for 18 days and measured after 12 hrs of last dose by immunohistochemical analysis", "format": "functional, organism-based", "conditions": "time 444.0 hrs"}, "[16]": {"assay": "Stability of the compound in mouse plasma assessed as cleavage to metabolites measured after 4 hrs by LC-MS/MS analysis relative to control", "format": "ADME, cell-free"}, "NCI-H3122 [17]": {"tested_on": "NCI-H3122", "assay": "Induction of apoptosis in human NCI-H3122 cells assessed as necrotic cells at 0.312 uM incubated for 48 hrs by Annexin V-FITC/propidium iodide staining based flow cytometric analysis (reference value: 0.57%)", "format": "functional"}, "[18]": {"biological_target": "ALK tyrosine kinase receptor (Homo sapiens) (UniProt Q9UM73)", "assay": "Inhibition of ALK (unknown origin) at 1 uM by LANCE Ultra TR-FRET assay relative to control"}, "[19]": {"assay": "Toxicity in BALB/c nude mouse xenografted with human NCI-H3122 cells assessed as effect on visceral lung morphology at 75 mg/kg, IG administered once daily for 18 days and measured after 12 hrs of last dose by H and E staining based analysis", "format": "organism-based", "conditions": "in vivo, po, 444 h"}, "[20]": {"assay": "Cytotoxicity against human L02 cells assessed as inhibition of cell growth pretreated with GSH followed by compound addition and incubated for 3 to 5 days by MTT assay", "format": "toxicity, cell-based"}, "NCI-H3122 [21]": {"tested_on": "NCI-H3122", "assay": "Induction of apoptosis in human NCI-H3122 cells assessed as late apoptotic cells at 0.625 uM incubated for 48 hrs by Annexin V-FITC/propidium iodide staining based flow cytometric analysis (reference value: 3.06%)", "format": "functional"}, "[22]": {"assay": "Toxicity in BALB/c nude mouse xenografted with human NCI-H3122 cells assessed as effect on visceral spleen morphology at 75 mg/kg, IG administered once daily for 18 days and measured after 12 hrs of last dose by H and E staining based analysis", "format": "organism-based", "conditions": "in vivo, po, 444 h"}, "[23]": {"assay": "Toxicity in BALB/c nude mouse xenografted with human NCI-H3122 cells assessed as reduction in body weight at 25 to 75 mg/kg, IG administered once daily for 18 days", "format": "organism-based", "conditions": "in vivo, po, 432 h, dose 25-75 mg/kg, time 18 day"}, "[24]": {"assay": "Toxicity in BALB/c nude mouse xenografted with human NCI-H3122 cells assessed as tolerance at 25 to 75 mg/kg, IG administered once daily for 18 days", "format": "organism-based", "conditions": "in vivo, po, 432 h, dose 25-75 mg/kg, time 18 day"}, "[25]": {"biological_target": "T1, Protein cereblon/Cyclin-dependent kinase 4", "assay": "PROTAC activity at CRBN/CDK4 in human NCI-H2228 cells assessed as reduction in CDK4 protein level by Western blot analysis", "format": "cell-based"}, "NCI-H3122 [26]": {"tested_on": "NCI-H3122", "assay": "Inhibition of colony formation in human NCI-H3122 cells assessed as reduction in number of colonies at 0.312 uM measured after 10 days by crystal violet staining based microscopic analysis relative to control", "format": "functional", "conditions": "NCI-H3122, 240 h, time 10 day"}, "NCI-H3122 [27]": {"tested_on": "NCI-H3122", "assay": "Antitumor activity against human NCI-H3122 cells xenografted in BALB/c nude mouse assessed as tumor growth inhibition at 75 mg/kg, IG administered once daily for 18 days and measured after 12 hrs of last dose relative to control", "format": "functional", "conditions": "NCI-H3122, po, time 444 hrs, read-out: TGI"}},
  "note": "Calls of active or inactive are those of the source. No cut-off for these calls is given here.",
  "data": [
    {"smiles": "CC(=O)c1c(C)c2cnc(Nc3ccc(N4CCN(CC(=O)NCCSSCCN(CC(=O)NCCNc5cccc6c5C(=O)N(C5CCC(=O)NC5=O)C6=O)C(=O)CCCCCCC(=O)N5CCC(c6cc(OC(C)C)c(Nc7ncc(Cl)c(Nc8ccccc8S(=O)(=O)C(C)C)n7)cc6C)CC5)CC4)cn3)nc2n(C2CCCC2)c1=O", "note": "(centres undefined)", "values": [
      {"measurement": "IC50", "setting": "NCI-H1299", "value": 21.2, "unit": "µM"},
      {"measurement": "Activity", "setting": "NCI-H3122 [1]", "value": 14.44, "unit": "%"},
      {"measurement": "Activity", "setting": "[2]", "value": "Non-Toxic"},
      {"measurement": "Activity", "setting": "[3]", "value": "inactive"},
      {"measurement": "IC50", "setting": "NCI-H2228 [4]", "value": 5.56, "unit": "µM"},
      {"measurement": "Activity", "setting": "[5]", "value": "inactive"},
      {"measurement": "Activity", "setting": "NCI-H3122 [6]", "value": 10.54, "unit": "%"},
      {"measurement": "Activity", "setting": "[7]", "value": "inactive"},
      {"measurement": "Activity", "setting": "[8]", "value": "inactive"},
      {"measurement": "Activity", "setting": "NCI-H3122 [9]", "value": 16.42, "unit": "%"},
      {"measurement": "Activity", "setting": "NCI-H3122 [10]", "value": 16.61, "unit": "%"},
      {"measurement": "inhibition", "setting": "[11]", "value": 68.3, "unit": "%"},
      {"measurement": "inhibition", "setting": "[12]", "value": 80.2, "unit": "%"},
      {"measurement": "Activity", "setting": "[13]", "value": "Active"},
      {"measurement": "IC50", "setting": "NCI-H2228 [14]", "value": 1.76, "unit": "µM"},
      {"measurement": "Activity", "setting": "[15]", "value": "Non-Toxic"},
      {"measurement": "Activity", "setting": "Mus musculus", "value": "Active"},
      {"measurement": "Drug degradation", "setting": "[16]", "value": 30, "unit": "%"},
      {"measurement": "Activity", "setting": "NCI-H3122 [17]", "value": 0.6, "unit": "%"},
      {"measurement": "inhibition", "setting": "[18]", "value": 96.4, "unit": "%"},
      {"measurement": "Activity", "setting": "[19]", "value": "Non-Toxic"},
      {"measurement": "IC50", "setting": "[20]", "value": 12.7, "unit": "µM"},
      {"measurement": "Activity", "setting": "NCI-H3122 [21]", "value": 8.32, "unit": "%"},
      {"measurement": "Activity", "setting": "[22]", "value": "Non-Toxic"},
      {"measurement": "Activity", "setting": "[23]", "value": "Non-Toxic"},
      {"measurement": "Activity", "setting": "[24]", "value": "Non-Toxic"},
      {"measurement": "Activity", "setting": "[25]", "value": "Active"},
      {"measurement": "inhibition at 0.312 µM", "setting": "NCI-H3122 [26]", "value": 100, "unit": "%"},
      {"measurement": "inhibition in vivo at 75 mg/kg", "setting": "NCI-H3122 [27]", "value": 60.5, "unit": "%"}
    ]}
  ]
}
